According to the Deep4Chem optical property database:

Assay: photoluminescence quantum yield (fraction); solvent given as SMILES
[1] = in O=P(c1ccccc1)(c1ccccc1)c1ccccc1Oc1ccccc1P(=O)(c1ccccc1)c1ccccc1

CCCCC(CC)Cn1c2cc(C#N)ccc2c2ccc(C#Cc3cc(C#Cc4ccc5c6ccc(C#N)cc6n(CC(CC)CCCC)c5c4)c4ccc5c(C#Cc6ccc7c8ccc(C#N)cc8n(CC(CC)CCCC)c7c6)cc(C#Cc6ccc7c8ccc(C#N)cc8n(CC(CC)CCCC)c7c6)c6ccc3c4c65)cc21 (centres undefined)
photoluminescence quantum yield (in ClCCl): 0.61

CCCCc1ccc(-n2c3c(c4c2c2c(n4-c4ccc(CCCC)cc4)-c4cc(F)ccc4NB2c2ccccc2)B(c2ccccc2)Nc2ccc(F)cc2-3)cc1
photoluminescence quantum yield (in Cc1ccccc1): 0.64

C[n+]1cc2ccc3c[n+](C)cc4ccc(c1)c2c34
photoluminescence quantum yield (in CC#N): 0.6

Cc1ccc(N(c2ccc(C)cc2)c2ccc(-c3ccc4c(c3)C(=O)c3ccccc3C4=O)cc2)cc1
photoluminescence quantum yield (in C1CCOC1): 0 | photoluminescence quantum yield (in CCCCCC): 0.403 | photoluminescence quantum yield (in CCOC(C)=O): 0 | photoluminescence quantum yield (in CCOCC): 0.0041 | photoluminescence quantum yield (in Cc1ccccc1): 0.0801 | photoluminescence quantum yield (in ClC(Cl)(Cl)Cl): 0.246 | photoluminescence quantum yield (in ClCCl): 0

CB1C=Cc2ccc3ccccc3c2N1
photoluminescence quantum yield (in C1CCCCC1): 0.7

CCc1ccc(-c2nc(-c3ccc(-n4c5ccccc5c5ccccc54)cc3)cc(-c3ccc(-n4c5ccccc5c5ccccc54)cc3)n2)cc1
photoluminescence quantum yield (in C1CCOC1): 0.6 | photoluminescence quantum yield (in CN(C)C=O): 0.74 | photoluminescence quantum yield (in Cc1ccccc1): 0.71 | photoluminescence quantum yield (in ClC(Cl)Cl): 0.58

COc1cc(N(c2ccc(C=C(C#N)C#N)c(OC)c2)c2ccc(C=C(C#N)C#N)c(OC)c2)ccc1C=C(C#N)C#N
photoluminescence quantum yield (in C1COCCO1): 0.025 | photoluminescence quantum yield (in CC#N): 0.047 | photoluminescence quantum yield (in CC(C)=O): 0.074 | photoluminescence quantum yield (in CCOC(C)=O): 0.166 | photoluminescence quantum yield (in CN(C)C=O): 0.026 | photoluminescence quantum yield (in CO): 0.043 | photoluminescence quantum yield (in Cc1ccccc1): 0.018 | photoluminescence quantum yield (in ClC(Cl)Cl): 0.025 | photoluminescence quantum yield (in ClCCl): 0.028

CCCCC(CC)Cn1c2cc(-c3ccc(N(c4ccccc4)c4ccccc4)cc3)c(C#N)cc2c2cc(C#N)c(-c3ccc(N(c4ccccc4)c4ccccc4)cc3)cc21 (centres undefined)
photoluminescence quantum yield (in ClCCl): 0.8

CSc1sc(C(=O)c2ccccc2)c2nn[nH]c(=O)c12
photoluminescence quantum yield (in C1CCOC1): 0.016 | photoluminescence quantum yield (in CC#N): 0.013 | photoluminescence quantum yield (in CCO): 0.0088 | photoluminescence quantum yield (in CN(C)C=O): 0.0057 | photoluminescence quantum yield (in CO): 0.0069 | photoluminescence quantum yield (in CS(C)=O): 0.0056

Cc1ccc(-c2ccc(/C=C/c3ccccc3)cn2)nc1
photoluminescence quantum yield (in CC#N): 0.67

Cc1cccc(C)c1
photoluminescence quantum yield (in C1CCCCC1): 0.25

Cc1cc(-n2c3ccccc3c3cc4c(cc32)C2c3ccccc3C4c3ccccc32)ccc1-c1nc(-c2ccccc2)nc(-c2ccccc2)n1
photoluminescence quantum yield (in Cc1ccccc1): 0.8 | photoluminescence quantum yield [1]: 0.51

CCN(CC)c1ccc([N+]2=Cc3ccc4c5c(ccc4c3O[B-]2(c2ccccc2)c2ccccc2)C=[N+](c2ccc(N(CC)CC)cc2)[B-](c2ccccc2)(c2ccccc2)O5)cc1
photoluminescence quantum yield (in Cc1ccccc1): 0.4 | photoluminescence quantum yield (in ClCCl): 0.29

c1ccc2c(-c3ccncc3)c3c(nc2c1)-c1cc2c(cc1CC3)-c1nc3ccccc3c(-c3ccncc3)c1CC2
photoluminescence quantum yield (in ClC(Cl)Cl): 0.961

Cc1ccc(-n2cccc2)cc1
photoluminescence quantum yield (in CC#N): 0.4 | photoluminescence quantum yield (in CCCCCC): 0.28

CCCCC(CC)COc1ccc2nc(-c3ccc(-c4c(C)noc4C)s3)sc2c1 (centres undefined)
photoluminescence quantum yield (in ClCCl): 0.72

CC(C)(C)c1ccc2c(c1)c1cc(C(C)(C)C)ccc1n2-c1ccc(C#Cc2ccc(C#Cc3ccc(C=C(C#N)C#N)cc3)cc2)cc1
photoluminescence quantum yield (in ClCCl): 0.3

COc1cc(OC)c2c(c1)C(=O)c1ccccc1-2
photoluminescence quantum yield (in C1CCCCC1): 0.026 | photoluminescence quantum yield (in CC#N): 0.0012 | photoluminescence quantum yield (in CCO): 0

FC(F)(F)c1ccc(-c2ncc3ccccn23)cc1
photoluminescence quantum yield (in ClC(Cl)Cl): 0.04

CC1(C)c2ccccc2-c2cc3c4ccccc4n(-c4ccc(-c5nc(-c6ccccc6)nc(-c6ccccc6)n5)cc4)c3cc21
photoluminescence quantum yield [1]: 0.933

COc1ccc(N(c2ccc(OC)cc2)c2ccc3c(c2)C2(c4cc(N(c5ccc(OC)cc5)c5ccc(OC)cc5)ccc4C=C3)c3ccccc3-c3ccccc32)cc1
photoluminescence quantum yield (in ClCCl): 0.9

CCc1cccc(CC)c1-c1c2ccccc2c(C#Cc2ccccc2)c2cc3ccccc3cc12
photoluminescence quantum yield (in ClCCl): 0.57

COC(=O)CC1(C(=O)OC)Oc2c(c(C(C)=O)c3c(c2C(C)=O)OCO3)O1
photoluminescence quantum yield (in CC#N): 0.62

CCCCCCc1ccc(-n2c3[n+](c4c5ccccc5c5ccccc5c42)[B-](C)(C)c2cc(N(c4ccccc4)c4ccccc4)ccc2-3)cc1
photoluminescence quantum yield (in C1CCOC1): 0.86 | photoluminescence quantum yield (in CC#N): 0.73 | photoluminescence quantum yield (in Cc1ccccc1): 0.83 | photoluminescence quantum yield (in ClCCl): 0.88

CC(=O)c1ccc(NC(=O)c2ccc(N(C)C)cc2)cc1
photoluminescence quantum yield (in C1CCCCC1): 0.0006 | photoluminescence quantum yield (in C1CCOC1): 0.0158 | photoluminescence quantum yield (in CC#N): 0.0017 | photoluminescence quantum yield (in CCOCC): 0.001

c1ccc(-n2c(-c3cccc4ccccc34)nc3c4cccc5ccc6cccc(c6c54)c32)cc1
photoluminescence quantum yield (in Cc1ccccc1): 1

C(=C\c1ccncn1)/c1ccc(N(c2ccccc2)c2ccc(/C=C/c3ccncn3)cc2)cc1
photoluminescence quantum yield (in ClCCl): 0.73

CN(C)c1ccc2cc(C3=[O+][B-](F)(F)OC(c4ccc(C#N)cc4)=C3)ccc2c1
photoluminescence quantum yield (in C1CCOC1): 0.56 | photoluminescence quantum yield (in CC#N): 0.007 | photoluminescence quantum yield (in CC(C)=O): 0.18 | photoluminescence quantum yield (in CS(C)=O): 0.007 | photoluminescence quantum yield (in Cc1ccccc1): 0.62 | photoluminescence quantum yield (in ClC(Cl)Cl): 0.94 | photoluminescence quantum yield (in ClCCl): 0.87

C(S/C=C/c1ccc(-c2ccc(/C=C/SC=C(c3ccccc3)c3ccccc3)cc2)cc1)=C(c1ccccc1)c1ccccc1
photoluminescence quantum yield (in ClCCl): 0.143

S=P1(c2ccccc2)c2cccc3c4c5ccccc5c5ccccc5c4c4ccc1n4c23 (centres undefined)
photoluminescence quantum yield (in ClCCl): 0.24

COc1ccc2cc(-c3cc(-c4ccccc4)c4n3[B-](F)(F)[N+]3=C5C=NC=CN5[B-](F)(F)[N+]3=C4)ccc2c1
photoluminescence quantum yield (in ClCCl): 0.43

COCCOCCOCCOCC(COCCOCCOCCOC)Oc1cc(/C=C/c2ccc(/C=C(\C#N)c3ccc(C(F)(F)F)cc3)cc2)c(OC(COCCOCCOCCOC)COCCOCCOCCOC)cc1/C=C/c1ccc(/C=C(\C#N)c2ccc(C(F)(F)F)cc2)cc1
photoluminescence quantum yield (in ClCCl): 0.55

CN(C)c1ccc(/C=C/c2nc3cc(Br)ccc3nc2-c2ccccc2)cc1
photoluminescence quantum yield (in C1COCCO1): 0.14 | photoluminescence quantum yield (in CC#N): 0.01 | photoluminescence quantum yield (in ClCCl): 0.17

COc1ccc(-c2nc(-c3ccccc3)c(N(c3ccccc3)c3ccccc3)s2)cc1
photoluminescence quantum yield (in ClC(Cl)Cl): 0.16

O=C1c2ccc3c4c(NC5CCCCC5)cc5c6c(ccc(c7c(NC8CCCCC8)cc(c2c37)C(=O)N1C1CCCCC1)c64)C(=O)N(C1CCCCC1)C5=O
photoluminescence quantum yield (in ClC(Cl)Cl): 0.008

COc1ccc(-c2c3cc4ccccc4cc3c(C#Cc3ccccc3)c3cc4cc(C)sc4cc23)cc1
photoluminescence quantum yield (in ClCCl): 0.45

COc1ccc2c(-c3nc(-c4cccc(C)c4)no3)cc(=O)oc2c1
photoluminescence quantum yield (in CCO): 0.52 | photoluminescence quantum yield (in ClC(Cl)Cl): 0.12

NS(=O)(=O)c1ccc(N2N=C(c3ccc(O)cc3)CC2c2ccc(Cl)cc2)cc1 (centres undefined)
photoluminescence quantum yield (in C1CCOC1): 0.68 | photoluminescence quantum yield (in C1COCCO1): 0.72 | photoluminescence quantum yield (in CC#N): 0.65 | photoluminescence quantum yield (in CC(C)O): 0.53 | photoluminescence quantum yield (in CCO): 0.44 | photoluminescence quantum yield (in CCOC(C)=O): 0.72 | photoluminescence quantum yield (in CN(C)C=O): 0.71 | photoluminescence quantum yield (in CO): 0.36 | photoluminescence quantum yield (in CS(C)=O): 0.75 | photoluminescence quantum yield (in O): 0.56

CN(C)c1ccc(-c2ccc(-c3cc(N4CCCCC4)c(C#N)c4c3-c3ccccc3CC4)cc2)cc1
photoluminescence quantum yield (in C1CCOC1): 0.68

CCCCN1C(=O)c2cccc3c(N(C)C)ccc(c23)C1=O
photoluminescence quantum yield (in Cc1ccccc1): 0.95

CC(=O)OCCN1C(=O)c2cccc3c(Oc4ccccc4C)ccc(c23)C1=O
photoluminescence quantum yield (in ClC(Cl)Cl): 0.12

Cc1ccc(C)n1-c1cccc(C#N)c1
photoluminescence quantum yield (in C1CCOC1): 0.006 | photoluminescence quantum yield (in CCCCCC): 0.004 | photoluminescence quantum yield (in CCCCCl): 0.004 | photoluminescence quantum yield (in CCOCC): 0.006 | photoluminescence quantum yield (in ClCCl): 0.003

CCN(CC)c1ccc2c(-c3ccccc3C(=O)O)c3c([o+]c2c1)/C(=C/c1nc(-c2ccccc2)n2ccccc12)CCC3
photoluminescence quantum yield (in ClCCl): 0.4

CC(C)(C)NC1=CC2=c3cc(NC(C)(C)C)c4nc(C(F)(F)C(F)(F)C(F)(F)F)nc5c(NC(C)(C)C)cc(c3c54)C3=CC(NC(C)(C)C)=C4N=C(C(F)(F)C(F)(F)C(F)(F)F)N=C1C4C32 (centres undefined)
photoluminescence quantum yield (in C1CCOC1): 0.25

C#CCNC1=C2C=C(c3cc4n(c3)[B-](F)(F)[N+]3=CC=CC3=C4c3c(C)cc(C)cc3C)C(C)=[N+]2[B-](F)(F)n2c(C)ccc21
photoluminescence quantum yield (in C1CCCCC1): 0.42 | photoluminescence quantum yield (in CCOC(C)=O): 0.06

O=C(O)c1cc2c(cc3ccc4cccc5ccc2c3c45)[nH]1
photoluminescence quantum yield (in CCOC(C)=O): 0.82

CN(C)c1ccc(C(=O)Nc2ccc([N+](=O)[O-])cc2)cc1
photoluminescence quantum yield (in C1CCCCC1): 0.0001 | photoluminescence quantum yield (in C1CCOC1): 0.0003 | photoluminescence quantum yield (in CC#N): 0.0002 | photoluminescence quantum yield (in CCOCC): 0.0006

CC(C)(C)NC(=O)c1ccc(-c2cc3ccccc3o2)c2ccc3c4ccccc4c4ccccc4c3c12
photoluminescence quantum yield (in ClCCl): 0.44

C/C=C/c1ccc(OC)cc1
photoluminescence quantum yield (in CC#N): 0.27 | photoluminescence quantum yield (in CCCCCC): 0.35

CCC1=C(C)C(=O)n2c1cc1c(C)c(CC(=O)OC)c(C)n1c2=O
photoluminescence quantum yield (in CO): 0.94 | photoluminescence quantum yield (in CS(C)=O): 1 | photoluminescence quantum yield (in ClC(Cl)Cl): 1 | photoluminescence quantum yield (in c1ccccc1): 1

CCC(C)(C)c1ccc(-c2ccc3c(c2)C(CCOC)(CCOC)c2cc(C(C)(C)CC)ccc2-3)cc1
photoluminescence quantum yield (in C1CCCCC1): 0.71

CCCCCCCCC1(CCCCCCCC)c2cc(-c3ccc([N+](=O)[O-])cc3)ccc2-c2ccc(-c3ccc([N+](=O)[O-])cc3)cc21
photoluminescence quantum yield (in C1CCCCC1): 0 | photoluminescence quantum yield (in CCO): 0 | photoluminescence quantum yield (in CN(C)C=O): 0.31 | photoluminescence quantum yield (in CS(C)=O): 0.28 | photoluminescence quantum yield (in Cc1ccccc1): 0 | photoluminescence quantum yield (in ClC(Cl)Cl): 0.11

F[B-]1(F)OC(c2ccccc2)=Nc2sc(-c3ccccc3)n[n+]21
photoluminescence quantum yield (in C1CCOC1): 0.02 | photoluminescence quantum yield (in CCO): 0.01 | photoluminescence quantum yield (in CCOC(C)=O): 0.01 | photoluminescence quantum yield (in CN(C)C=O): 0.01 | photoluminescence quantum yield (in Cc1ccccc1): 0.06 | photoluminescence quantum yield (in ClC(Cl)Cl): 0.05 | photoluminescence quantum yield (in ClCCl): 0.03

CC1(C)c2ccccc2N(c2ccc3c(c2)Oc2ccccc2S3(=O)=O)c2ccccc21
photoluminescence quantum yield (in Cc1ccccc1): 0.48 | photoluminescence quantum yield [1]: 0.98
